Reference: patent US20240197938A1, “ANTIMICROBIAL COMPOUNDS BASED ON GLUCOHEPTONIC ACIDS AND THEIR SALTS” (HARCROS CHEMICALS, INC., priority 2021, published 2024)

Tests used:
Assay type in all cases: cell-based
[1] = test system: Candida albicans; experiment: ASTM E2315-16 Time-Kill Procedure; conditions: for Log Reduction: 30 seconds; for log reduction: 10 minutes
Protocol: (§1) Select compounds were tested for antimicrobial activity using ASTM method […]-16 (Standard Guide for Assessment of Antimicrobial Activity using a Time-Kill Procedure). Six microbes were tested: Candida albicans, Staphylococcus aureus, Staphylococcus epidermidis. Escherichia coli, Salmonella abony, and Listeria monocytogenes. Four chlorhexidine salts were tested: chlorhexidine di-α-glucoheptonate (Sample G), chlorhexidine di-β73-glucoheptonate (Sample H), chlorhexidine digluconate (Sample I), and chlorhexidine diacetate (Sample P). Both chlorhexidine diglucoheptonate salts were prepared at a 2:1 molar ratio of glucoheptonic acid to chlorhexidine. Dilutions of each salt were prepared using sterile water (20-30 ppm hardness), to achieve the desired wt. % concentration. Two glucoheptonic acids were evaluated for antimicrobial activity against the same six microbes as Example 13. Sample L was α-glucoheptonic acid. Sample M was β73-glucoheptonic acid. Benzalkonium salts were also tested using the same procedure as set forth in Example 13. The samples were benzalkonium chloride (C12-C16) (Sample C), benzalkonium chloride (C12-C14) (Sample D), benzalkonium chloride in combination with a stoichiometric amount of α-glucoheptonate (Sample F), and benzalkonium chloride in combination with a molar excess of α-glucoheptonate (Sample N). Sample F was prepared by mixing and extensively heating a stoichiometric quantity (1:1) of sodium α-glucoheptonate with benzalkonium chloride, typified by the C12-14 alkyl chain. Sample N was prepared by simply blending benzalkonium chloride, typified by the C12-16 chain, with a molar excess of sodium α-glucoheptonate (1.6:1). Both Samples F and N contain sodium chloride.

[2] = test system: Staphylococcus epidermidis; experiment: ASTM E2315-16 Time-Kill Procedure; conditions: for Log Reduction: 30 seconds; for log reduction: 10 minutes
Protocol: as §1

[3] = test system: Staphylococcus aureus; experiment: ASTM E2315-16 Time-Kill Procedure; conditions: for Log Reduction: 30 seconds; for log reduction: 10 minutes
Protocol: as §1

[4] = test system: all microbes (Candida albicans, Staphylococcus aureus, Staphylococcus epidermidis, Escherichia coli, Salmonella abony, Listeria monocytogenes); experiment: ASTM E2315-16 Time-Kill Procedure, average across all microbes; conditions: for Log Reduction, Average, all microbes: 30 seconds; for average Log Reduction (LR) in microbial population across all microbes / log reduction, Average, all microbes: 10 minutes
Protocol: Select compounds were tested for antimicrobial activity using ASTM method […]-16 (Standard Guide for Assessment of Antimicrobial Activity using a Time-Kill Procedure). Six microbes were tested: Candida albicans, Staphylococcus aureus, Staphylococcus epidermidis. Escherichia coli, Salmonella abony, and Listeria monocytogenes. Four chlorhexidine salts were tested: chlorhexidine di-α-glucoheptonate (Sample G), chlorhexidine di-β73-glucoheptonate (Sample H), chlorhexidine digluconate (Sample I), and chlorhexidine diacetate (Sample P). Both chlorhexidine diglucoheptonate salts were prepared at a 2:1 molar ratio of glucoheptonic acid to chlorhexidine. Dilutions of each salt were prepared using sterile water (20-30 ppm hardness), to achieve the desired wt. % concentration. Samples G, H, I, and P were also tested at a concentration of 0.60 wt % active and evaluated for the average Log Reduction in microbial population at 10 minutes, across all microbes. A further test was conducted at a concentration of 1.0 wt % active and evaluated for the average Log Reduction in microbial population at 10 minutes, across all microbes. Benzalkonium salts were also tested using the same procedure as set forth in Example 13. The samples were benzalkonium chloride (C12-C16) (Sample C), benzalkonium chloride (C12-C14) (Sample D), benzalkonium chloride in combination with a stoichiometric amount of α-glucoheptonate (Sample F), and benzalkonium chloride in combination with a molar excess of α-glucoheptonate (Sample N). Sample F was prepared by mixing and extensively heating a stoichiometric quantity (1:1) of sodium α-glucoheptonate with benzalkonium chloride, typified by the C12-14 alkyl chain. Sample N was prepared by simply blending benzalkonium chloride, typified by the C12-16 chain, with a molar excess of sodium α-glucoheptonate (1.6:1). Both Samples F and N contain sodium chloride. A further antimicrobial test was conducted to determine the log reduction at 10 minutes. Samples C, D, F, and N are as defined above.

[5] = test system: Listeria monocytogenes; experiment: ASTM E2315-16 Time-Kill Procedure; conditions: for Log Reduction: 30 seconds; for log reduction: 10 minutes
Protocol: as §1, with “concentration.” for “concentration. Two glucoheptonic acids were evaluated for antimicrobial activity against the same six microbes as Example 13. Sample L was α-glucoheptonic acid. Sample M was β73-glucoheptonic acid.”

[6] = test system: Escherichia coli; experiment: ASTM E2315-16 Time-Kill Procedure; conditions: for Log Reduction: 30 seconds; for log reduction: 10 minutes
Protocol: as §1, with “concentration.” for “concentration. Two glucoheptonic acids were evaluated for antimicrobial activity against the same six microbes as Example 13. Sample L was α-glucoheptonic acid. Sample M was β73-glucoheptonic acid.”

[7] = test system: Salmonella abony; experiment: ASTM E2315-16 Time-Kill Procedure; conditions: for Log Reduction: 30 seconds; for log reduction: 10 minutes
Protocol: as §1, with “concentration.” for “concentration. Two glucoheptonic acids were evaluated for antimicrobial activity against the same six microbes as Example 13. Sample L was α-glucoheptonic acid. Sample M was β73-glucoheptonic acid.”

CC(=O)O.CC(=O)O.NC(=N\CCCCCC/N=C(N)/N=C(\N)Nc1ccc(Cl)cc1)/N=C(\N)Nc1ccc(Cl)cc1 [Sample P, chlorhexidine diacetate]
Log Reduction ([1]; 0.20% (wt. %)): 2.56
Log Reduction ([1]; 0.60% (wt. %)): 3.35
Log Reduction ([1]; 1.00% (wt. %)): 4.48
Log Reduction ([2]; 0.20% (wt. %)): 1.57
Log Reduction ([2]; 0.60% (wt. %)): 3.57
Log Reduction ([2]; 1.00% (wt. %)): 3.75
Log Reduction ([3]; 0.20% (wt. %)): 3.22
Log Reduction ([3]; 0.60% (wt. %)): 4.93
Log Reduction ([3]; 1.00% (wt. %)): 5.07
Log Reduction, Average, all microbes ([4]; 0.20% (wt. %)): 2.06
Log Reduction, Average, all microbes ([4]; 0.60% (wt. %)): 3.02
Log Reduction, Average, all microbes ([4]; 1.00% (wt. %)): 3.71
average Log Reduction (LR) in microbial population across all microbes ([4]; 0.60 wt % active): 4.09
average Log Reduction (LR) in microbial population across all microbes ([4]; 1.0 wt % active): 5.17
Log Reduction ([5]; 0.20% (wt. %)): 1.29
Log Reduction ([5]; 0.60% (wt. %)): 1.36
Log Reduction ([5]; 1.00% (wt. %)): 1.55
Log Reduction ([6]; 0.20% (wt. %)): 1.54
Log Reduction ([6]; 0.60% (wt. %)): 1.59
Log Reduction ([6]; 1.00% (wt. %)): 3.07
Log Reduction ([7]; 0.20% (wt. %)): 2.17
Log Reduction ([7]; 0.60% (wt. %)): 3.34
Log Reduction ([7]; 1.00% (wt. %)): 4.34

benzalkonium chloride (C12-C14) [Sample D]
Log Reduction ([1]; 0.10%): 3.65
Log Reduction ([1]; 0.25%): 3.75
Log Reduction ([1]; 0.50%): 4.51
log reduction ([1]; 0.10%): 4.84
log reduction ([1]; 0.25%): 5.55
log reduction ([1]; 0.50%): 5.77
Log Reduction ([2]; 0.10%): 3.39
Log Reduction ([2]; 0.25%): 3.47
Log Reduction ([2]; 0.50%): 3.75
log reduction ([2]; 0.10%): 4.47
log reduction ([2]; 0.25%): 4.98
log reduction ([2]; 0.50%): 5.05
Log Reduction ([3]; 0.10%): 3.59
Log Reduction ([3]; 0.25%): 3.97
Log Reduction ([3]; 0.50%): 4.19
log reduction ([3]; 0.10%): 5.37
log reduction ([3]; 0.25%): 5.67
log reduction ([3]; 0.50%): 5.97
Log Reduction, Average, all microbes ([4]; 0.10%): 3.28
Log Reduction, Average, all microbes ([4]; 0.25%): 3.50
Log Reduction, Average, all microbes ([4]; 0.50%): 3.78
log reduction, Average, all microbes ([4]; 0.10%): 4.84
log reduction, Average, all microbes ([4]; 0.25%): 5.21
log reduction, Average, all microbes ([4]; 0.50%): 5.41
Log Reduction ([5]; 0.10%): 3.49
Log Reduction ([5]; 0.25%): 3.77
Log Reduction ([5]; 0.50%): 3.91
log reduction ([5]; 0.10%): 5.61
log reduction ([5]; 0.25%): 5.97
log reduction ([5]; 0.50%): 6.02
Log Reduction ([6]; 0.10%): 2.87
Log Reduction ([6]; 0.25%): 3.17
Log Reduction ([6]; 0.50%): 3.29
log reduction ([6]; 0.10%): 4.62
log reduction ([6]; 0.25%): 4.77
log reduction ([6]; 0.50%): 5.07
Log Reduction ([7]; 0.10%): 2.70
Log Reduction ([7]; 0.25%): 2.86
Log Reduction ([7]; 0.50%): 3.04
log reduction ([7]; 0.10%): 4.14
log reduction ([7]; 0.25%): 4.34
log reduction ([7]; 0.50%): 4.55

benzalkonium chloride (C12-C16) [Sample C]
Log Reduction ([1]; 0.10%): 4.18
Log Reduction ([1]; 0.25%): 4.35
Log Reduction ([1]; 0.50%): 4.56
log reduction ([1]; 0.10%): 5.95
log reduction ([1]; 0.25%): 6.35
log reduction ([1]; 0.50%): 6.43
Log Reduction ([2]; 0.10%): 3.39
Log Reduction ([2]; 0.25%): 3.50
Log Reduction ([2]; 0.50%): 3.65
log reduction ([2]; 0.10%): 4.79
log reduction ([2]; 0.25%): 5.05
log reduction ([2]; 0.50%): 5.05
Log Reduction ([3]; 0.10%): 3.89
Log Reduction ([3]; 0.25%): 4.19
Log Reduction ([3]; 0.50%): 4.37
log reduction ([3]; 0.10%): 5.86
log reduction ([3]; 0.25%): 6.07
log reduction ([3]; 0.50%): 5.05
Log Reduction, Average, all microbes ([4]; 0.10%): 3.54
Log Reduction, Average, all microbes ([4]; 0.25%): 3.76
Log Reduction, Average, all microbes ([4]; 0.50%): 3.91
log reduction, Average, all microbes ([4]; 0.10%): 5.21
log reduction, Average, all microbes ([4]; 0.25%): 5.51
log reduction, Average, all microbes ([4]; 0.50%): 5.35
Log Reduction ([5]; 0.10%): 3.72
Log Reduction ([5]; 0.25%): 3.87
Log Reduction ([5]; 0.50%): 3.99
log reduction ([5]; 0.10%): 5.60
log reduction ([5]; 0.25%): 5.99
log reduction ([5]; 0.50%): 6.02
Log Reduction ([6]; 0.10%): 3.01
Log Reduction ([6]; 0.25%): 3.29
Log Reduction ([6]; 0.50%): 3.52
log reduction ([6]; 0.10%): 4.59
log reduction ([6]; 0.25%): 5.07
log reduction ([6]; 0.50%): 5.07
Log Reduction ([7]; 0.10%): 3.04
Log Reduction ([7]; 0.25%): 3.34
Log Reduction ([7]; 0.50%): 3.39
log reduction ([7]; 0.10%): 4.44
log reduction ([7]; 0.25%): 4.50
log reduction ([7]; 0.50%): 4.50
